From patent US20250154134A1, “COMPOUND AS FAK INHIBITOR AND USE THEREOF” (WIGEN BIOMEDICINE TECHNOLOGY (SHANGHAI) CO., LTD., priority 2022, published 2025)

Experiments:
PC3 cells [1] = experiment: PC3 cell proliferation, 3D activity assay (3D culture, 14 days); assay type: cell-based, human; conditions: read-out: 3D inhibitory activity against PC3 cells IC50
PC3 cells [2] = experiment: PC3 cell proliferation, 2D activity assay (Cell Titer-Lumi, 72 h); assay type: cell-based, human
PC3 cells [3] = experiment: Inhibition of PC3 cell low adsorption (adherent cell count, 4 h); assay type: cell-based; conditions: Homo sapiens, PC-3; 4 h treatment; read-out: IC50 against PC3 cell low adsorption
Procedure: PC3 cells were seeded at 8000 cells/well. 4 h after the cells were treated with a compound, the number of adherent cells was counted. The inhibition percentage and IC50 of the compound were calculated compared to the DMSO group.

FAK recombinant protein = FAK recombinant protein (Homo sapiens (Human), UniProt Q05397); experiment: Inhibitory activity against FAK enzyme (HTRF, TK substrate); assay type: biochemical
Procedure: A compound serially diluted with DMSO was mixed with a FAK recombinant protein. After the mixture was left to stand at room temperature for 10 min, a biotin-labeled TK substrate (TK) and ATP were added. […] The inhibition percentage and IC50 of the compound were calculated compared to the DMSO control group.

[4] = Homo sapiens, PC-3, read-out: 2D inhibitory activity against PC3 cells IC50

Sequence of FAK recombinant protein (Q05397 whole entry): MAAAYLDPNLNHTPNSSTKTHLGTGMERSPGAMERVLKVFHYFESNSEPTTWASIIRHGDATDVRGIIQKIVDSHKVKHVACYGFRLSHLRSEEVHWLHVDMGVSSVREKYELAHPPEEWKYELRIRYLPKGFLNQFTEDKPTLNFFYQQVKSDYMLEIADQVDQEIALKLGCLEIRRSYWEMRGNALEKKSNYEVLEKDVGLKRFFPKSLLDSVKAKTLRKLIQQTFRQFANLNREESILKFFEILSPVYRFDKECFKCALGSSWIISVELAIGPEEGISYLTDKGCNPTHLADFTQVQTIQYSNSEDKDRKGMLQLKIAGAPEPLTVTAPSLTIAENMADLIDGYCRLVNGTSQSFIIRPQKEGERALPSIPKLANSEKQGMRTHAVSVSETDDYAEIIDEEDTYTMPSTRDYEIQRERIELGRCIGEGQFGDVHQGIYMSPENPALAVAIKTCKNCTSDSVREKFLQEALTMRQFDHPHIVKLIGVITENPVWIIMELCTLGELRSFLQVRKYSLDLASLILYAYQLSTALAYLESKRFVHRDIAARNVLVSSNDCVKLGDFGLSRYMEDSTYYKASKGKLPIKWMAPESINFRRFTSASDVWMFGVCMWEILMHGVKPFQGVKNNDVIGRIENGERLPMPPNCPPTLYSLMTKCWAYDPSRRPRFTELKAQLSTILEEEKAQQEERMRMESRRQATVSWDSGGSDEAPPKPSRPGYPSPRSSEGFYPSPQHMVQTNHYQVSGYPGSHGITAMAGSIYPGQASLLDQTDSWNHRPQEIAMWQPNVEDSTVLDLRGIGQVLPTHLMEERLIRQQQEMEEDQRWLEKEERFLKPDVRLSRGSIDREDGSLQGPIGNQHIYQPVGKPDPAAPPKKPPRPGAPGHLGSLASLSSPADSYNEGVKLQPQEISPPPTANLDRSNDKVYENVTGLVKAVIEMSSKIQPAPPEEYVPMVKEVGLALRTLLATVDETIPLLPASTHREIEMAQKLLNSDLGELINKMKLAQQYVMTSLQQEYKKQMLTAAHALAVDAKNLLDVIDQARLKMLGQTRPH

IC50 (PC3 cells [1]; Homo sapiens, PC-3, 336 h) [nM]	IC50 (PC3 cells [2]; [4]) [nM]	IC50 (PC3 cells [3]) [nM]	IC50 (FAK recombinant protein) [nM]	IC50 (PC3 cells [1]) [nM]	IC50 (PC3 cells [2]; read-out: 2D inhibitory activity against PC3 cells IC50) [nM]	SMILES
10.8	> 2000	21.1	< 20			CNC(=O)c1ccc(Nc2ncc(C(F)(F)F)c(Oc3cccc4c3C(=O)N(C)C43CC3)n2)cc1 [Compound 1, N-methyl-4-((4-((2′-methyl-3′-oxospiro[cyclopropane-1,1′-isoindolin]-4′-yl)oxy)-5-(trifluoromethyl)pyrimidin-2-yl)amino)benzamide]
< 5	> 2000	2.67	< 20			COc1cc(C(=O)NC2(C)CCN(C)CC2)ccc1Nc1ncc(C(F)(F)F)c(Oc2cccc3c2C(=O)N(C)C32CC2)n1 [Compound 6]
0.96	> 2000	7.54	< 20			COc1cc(C(=O)NC2CC3(CCN(C)CC3)C2)c(F)cc1Nc1ncc(C(F)(F)F)c(Oc2cccc3c2C(=O)N(C)C32CC2)n1 [Compound 8, 2-fluoro-5-methoxy-4-((4-((2′-methyl-3′-oxospiro[cyclopropane-1,1′-isoindolin]-4′-yl)oxy)-5-(trifluoromethyl)pyrimidin-2-yl)amino)-N-(7-methyl-7-azaspiro[3.5]nonan-2-yl)benzamide]
< 5	> 2000	11.7	< 20			COc1cc(C(=O)NC2COC3(CCN(C)C3)C2)ccc1Nc1ncc(C(F)(F)F)c(Oc2cccc3c2C(=O)N(C)C32CC2)n1 (stereo not drawn) [Compound 27]
8.52	> 2000	13.4	< 20			CN1C(=O)c2c(Oc3nc(Nc4ccc5c(c4)CC(=O)N5)ncc3C(F)(F)F)cccc2C12CC2 [Compound 69]
5.18	> 2000	16.4	< 20			CN1C(=O)c2c(Oc3nc(Nc4ccc5c(c4)CCNC5=O)ncc3C(F)(F)F)cccc2C12CC2 [Compound 71]
4.88	> 10000	27.2	< 20			COc1cc(N2CCOCC2)ccc1Nc1ncc(C(F)(F)F)c(Oc2cccc3c2C(=O)N(C)C32CC2)n1 [Compound 77]
5 to 50	> 2000	6.29	< 20			COc1cc(CN2CCN(C)CC2)ccc1Nc1ncc(C(F)(F)F)c(Oc2cccc3c2C(=O)N(C)C32CC2)n1 [Compound 82]
1.78	> 10000	42.4	< 20			CN1Cc2cc(Nc3ncc(C(F)(F)F)c(Oc4cccc5c4C(=O)N(C)C54CC4)n3)cc3c2C(CCC3)C1 (stereo not drawn) [Compound 88]
< 5	> 2000		< 20			COCCN1CCN(c2ccc(Nc3ncc(Br)c(Oc4cccc5c4C(=O)N(C)C54CC4)n3)c(OC)c2)CC1 [Compound 185]
< 5	> 2000		< 20			COCCN1CCN(c2cc(OC)c(Nc3ncc(Br)c(Oc4cccc5c4C(=O)N(C)C54CC4)n3)cc2F)CC1 [Compound 186]
< 5	> 2000		< 20			COc1cc(N2CCN(CC(=O)N(C)C)CC2)ccc1Nc1ncc(Br)c(Oc2cccc3c2C(=O)N(C)C32CC2)n1 [Compound 187]
5 to 50	> 2000		< 20			COc1cc(N2CC3(CN(C)C3)C2)ccc1Nc1ncc(Br)c(Oc2cccc3c2C(=O)N(C)C32CC2)n1 [Compound 188]
< 5	> 2000		< 20			COc1cc(N2CCC3(CCN(C)CC3)CC2)ccc1Nc1ncc(Br)c(Oc2cccc3c2C(=O)N(C)C32CC2)n1 [Compound 189]
< 5	> 2000		< 20			COc1cc(N2CCC3(CC2)CN(C)C3)ccc1Nc1ncc(Br)c(Oc2cccc3c2C(=O)N(C)C32CC2)n1 [Compound 190]
5 to 50	> 2000		< 20			COc1cc(N2CCC(N(C)C)CC2)c(F)cc1Nc1ncc(Br)c(Oc2cccc3c2C(=O)N(C)C32CC2)n1 [Compound 191]
< 5	> 2000		< 20			COc1cc(C(=O)NC2CCN(C)CC2)ccc1Nc1ncc(C#N)c(Oc2cccc3c2C(=O)N(C)C32CC2)n1 [Compound 192, 4-((5-cyano-4-((2′-methyl-3′-oxospiro[cyclopropane-1,1′-isoindolin]-4′-yl)oxy)pyrimidin-2-yl)amino)-3-methoxy-N-(1-methylpiperidin-4-yl)benzamide]
< 5	> 2000		< 20			COc1cc(C(=O)NC2CCN(C)CC2)c(F)cc1Nc1ncc(C#N)c(Oc2cccc3c2C(=O)N(C)C32CC2)n1 [Compound 193]
< 5	> 2000		< 20			COc1cc(C(=O)NC2CC3(CCN(C)CC3)C2)c(F)cc1Nc1ncc(C#N)c(Oc2cccc3c2C(=O)N(C)C32CC2)n1 [Compound 194]
< 5	> 2000		< 20			COc1cc(C(=O)NC2CC3(CCN(C)CC3)C2)ccc1Nc1ncc(C#N)c(Oc2cccc3c2C(=O)N(C)C32CC2)n1 [Compound 195]

IC50 (PC3 cells [1]; Homo sapiens, PC-3, 336 h) [nM]	IC50 (PC3 cells [2]; [4]) [nM]	IC50 (PC3 cells [3]) [nM]	IC50 (FAK recombinant protein) [nM]	IC50 (PC3 cells [1]) [nM]	IC50 (PC3 cells [2]; read-out: 2D inhibitory activity against PC3 cells IC50) [nM]	SMILES
5 to 50	> 2000		< 20			COc1cc(C2CCN(C)CC2)ccc1Nc1ncc(C#N)c(Oc2cccc3c2C(=O)N(C)C32CC2)n1 [Compound 198]
5 to 50	> 2000		< 20			COc1cc(C2CCN(C)CC2)c(F)cc1Nc1ncc(C#N)c(Oc2cccc3c2C(=O)N(C)C32CC2)n1 [Compound 199]
< 5	> 2000		< 20			COc1cc(N2CCC(N3CCN(C)CC3)CC2)ccc1Nc1ncc(C#N)c(Oc2cccc3c2C(=O)N(C)C32CC2)n1 [Compound 200]
< 5	> 2000		< 20			COc1cc(N2CCN(C)CC2)c(F)cc1Nc1ncc(C#N)c(Oc2cccc3c2C(=O)N(C)C32CC2)n1 [Compound 201]
< 5	> 2000		< 20			COc1cc(N2CCC3(CC2)CN(C)C3)ccc1Nc1ncc(C#N)c(Oc2cccc3c2C(=O)N(C)C32CC2)n1 [Compound 202]
			< 20	< 5	> 2000	COc1cc(N2CC3(CCN(C)CC3)C2)ccc1Nc1ncc(Cl)c(Oc2cccc3c2C(=O)N(C)C32CCC2)n1 [Compound 203, 94′-((5-chloro-2-((2-methoxy-4-(7-methyl-2,7-diazaspiro[3.5]nonan-2-yl)phenyl)amino)pyrimidin-4-yl)oxy)-2′-methylspiro[cyclobutane-1,1′-isoindolin]-3′-one]
< 5	> 2000		< 20			COc1cc(C(=O)NC2CC3(CCN(C)CC3)C2)c(F)cc1Nc1ncc(Cl)c(Oc2cccc3c2C(=O)N(C)C32CCC2)n1 [Compound 204]
< 5	> 2000		< 20			COc1cc(C(=O)NC2CCN(C)CC2)c(F)cc1Nc1ncc(Cl)c(Oc2cccc3c2C(=O)N(C)C32CCC2)n1 [Compound 205]
< 5	> 2000		< 20			COc1cc(N2CC3(CCN(C)CC3)C2)c(F)cc1Nc1ncc(Cl)c(Oc2cccc3c2C(=O)N(C)C32CCC2)n1 [Compound 206]
5 to 50	> 2000		< 20			COc1cc(N2CC3(CCN(C)CC3)C2)ccc1Nc1ncc(Cl)c(Oc2cccc3c2C(=O)N(C)C32CCCC2)n1 [Compound 207]
> 50	> 2000		< 20			COc1cc(C(=O)NC2CC3(CCN(C)CC3)C2)c(F)cc1Nc1ncc(Cl)c(Oc2cccc3c2C(=O)N(C)C32CCCC2)n1 [Compound 208]
> 50	> 2000		< 20			COc1cc(N2CC3(CCN(C)CC3)C2)ccc1Nc1ncc(Cl)c(Oc2cccc3c2C(=O)N(C)C32CCCCC2)n1 [Compound 210]
> 50	> 2000		< 20			COc1cc(N2CC3(CCN(C)CC3)C2)c(F)cc1Nc1ncc(Cl)c(Oc2cccc3c2C(=O)N(C)C32CCCCC2)n1 [Compound 211]
> 50	> 2000		< 20			COc1cc(C(=O)NC2CCN(C)CC2)c(F)cc1Nc1ncc(Cl)c(Oc2cccc3c2C(=O)N(C)C32CCCCC2)n1 [Compound 212]
> 50	> 2000		< 20			COc1cc(N2CC3(CCN(C)CC3)C2)ccc1Nc1ncc(Cl)c(Oc2cccc3c2C(=O)N(C)C32CCOCC2)n1 [Compound 213]
> 50	> 2000		< 20			COc1cc(N2CC3(CCN(C)CC3)C2)c(F)cc1Nc1ncc(Cl)c(Oc2cccc3c2C(=O)N(C)C32CCOCC2)n1 [Compound 214]
> 50	> 2000		< 20			COc1cc(C(=O)NC2CCN(C)CC2)c(F)cc1Nc1ncc(Cl)c(Oc2cccc3c2C(=O)N(C)C32CCOCC2)n1 [Compound 215]
5 to 50	> 2000		< 20			COc1cc(N2CC3(CCN(C)CC3)C2)ccc1Nc1ncc(Cl)c(Oc2cccc3c2C(=O)N(C)C32COC2)n1 [Compound 216]
5 to 50	> 2000		< 20			COc1cc(N2CC3(CCN(C)CC3)C2)c(F)cc1Nc1ncc(Cl)c(Oc2cccc3c2C(=O)N(C)C32COC2)n1 [Compound 217]
> 50	> 2000		< 20			COc1cc(C(=O)NC2CCN(C)CC2)c(F)cc1Nc1ncc(Cl)c(Oc2cccc3c2C(=O)N(C)C32COC2)n1 [Compound 218]
